{"source": "paper PMC7375020", "about": "(Frontiers in Cell and Developmental Biology, 2020)", "key": {"[1]": {"system": "acetyl-histone H4 and acetyl-α-tubulin in MDA-MB-231 cells", "assay": "Western blot analysis of intracellular HDAC inhibition", "format": "cell-based, human", "conditions": "for level of acetyl-histone H4 / level of acetyl-α-tubulin: 3 h, immunoblot", "description": "The MDA-MB-231 cells were treated with compounds or DMSO for a specified period of time. Then the cells were washed twice with cold phosphate-buffered saline (PBS) and lysed in ice-cold radioimmunoprecipitation assay (RIPA) buffer. Lysates were cleared by centrifugation. Protein concentrations were determined using the bicinchoninic acid assay. Equal amounts of cell extracts were then resolved by sodium dodecyl sulfate–polyacrylamide gel electrophoresis, transferred to nitrocellulose membranes, and probed with acetyl-histone H4 antibody (intracellular substrate of HDAC1 and HDAC2), acetyl-α-tubulin antibody (intracellular substrate of HDAC6), and β-actin antibody (used as a loading control), respectively. Blots were detected using an enhanced chemiluminescence system."}, "[2]": {"design": "method as in Konsoula and Jung, 2008", "conditions": "reported data of vorinostat; ref Konsoula and Jung, 2008; cited from earlier work"}, "[3]": {"system": "MDA-MB-231", "assay": "In vitro antiproliferative assay (MTT), MDA-MB-231", "format": "cell-based", "conditions": "Homo sapiens, 72 h", "description": "(§1) The cell proliferation assay was determined by the MTT (3-[4,5-dimethyl-2-thiazolyl]-2,5-diphenyl-2H-tetrazolium bromide) method. Briefly, cells were passaged the day before dosing into a 96-well plate, allowed to grow for 12 h, and then treated with different concentrations of compound for 72 h. A 0.5% MTT solution was added to each well. After incubation for another 4 h, formazan formed from MTT was extracted by adding 200 μL of DMSO. Absorbance was then determined using a microplate reader at 570 nm."}, "[4]": {"system": "PC-3", "assay": "In vitro antiproliferative assay (MTT), PC-3", "format": "cell-based", "conditions": "Homo sapiens, 72 h", "description": "as §1"}, "[5]": {"system": "KG-1", "assay": "In vitro antiproliferative assay (MTT), KG-1", "format": "cell-based", "conditions": "Homo sapiens, 72 h", "description": "as §1"}, "[6]": {"system": "HEL", "assay": "In vitro antiproliferative assay (MTT), HEL", "format": "cell-based", "conditions": "Homo sapiens, 72 h", "description": "as §1"}, "[7]": {"system": "tested human cancer cell lines", "assay": "In vitro antiproliferative assay (MTT), all tested tumor cell lines", "format": "cell-based", "description": "as §1, with “All cell lines were maintained in Roswell Park Memorial Institute (RPMI) 1640 medium containing 10% fetal bovine serum at 37°C in a 5% CO2 humidified incubator. The” for “The”"}, "[8]": {"system": "HeLa cell nuclear extract", "assay": "In vitro HDAC inhibition fluorescent assay, total HDAC", "format": "biochemical", "conditions": "Boc-Lys(acetyl)-AMC substrate", "description": "(§2) An aliquot of 10 μL of enzyme solution (HeLa cell nuclear extract, HDAC2, HDAC6, or HDAC8) was mixed with different concentrations of test compound (50 μL). The mixture was incubated at 37°C for 5 min, followed by the addition of 40 μL of fluorogenic substrate tert-butyl (S)-(6-acetamido- 1-((4-methyl-2-oxo-2H-chromen-7-yl)amino)-1-oxohexan-2-yl) carbamate (Boc-Lys(acetyl)-AMC) for HeLa cell nuclear extracts, HDAC2, and HDAC6; tert-butyl (S)-(1-((4-methyl- 2-oxo-2H-chromen-7-yl)amino)-1-oxo-6-(2,2,2-trifluoroacetam ido)hexan-2-yl)carbamate (Boc-Lys(trifluoroacetyl)-AMC) for HDAC8). After incubation at 37°C for 30 min, the mixture was quenched by the addition of 100 μL of developer containing trypsin and trichostatin A. Following incubation at 37°C for 20 min, the fluorescence intensity was measured using a microplate reader at excitation and emission wavelengths of 390 and 460 nm, respectively. The inhibition ratios were calculated from the fluorescence intensity readout of tested wells relative to those of control wells, and the half maximal inhibitory concentration (IC50) values were calculated using the prism non-linear curve-fitting method."}, "[9]": {"biological_target": "HDAC2 (Homo sapiens, UniProt Q92769)", "sequence (Q92769 whole entry, species assumed)": "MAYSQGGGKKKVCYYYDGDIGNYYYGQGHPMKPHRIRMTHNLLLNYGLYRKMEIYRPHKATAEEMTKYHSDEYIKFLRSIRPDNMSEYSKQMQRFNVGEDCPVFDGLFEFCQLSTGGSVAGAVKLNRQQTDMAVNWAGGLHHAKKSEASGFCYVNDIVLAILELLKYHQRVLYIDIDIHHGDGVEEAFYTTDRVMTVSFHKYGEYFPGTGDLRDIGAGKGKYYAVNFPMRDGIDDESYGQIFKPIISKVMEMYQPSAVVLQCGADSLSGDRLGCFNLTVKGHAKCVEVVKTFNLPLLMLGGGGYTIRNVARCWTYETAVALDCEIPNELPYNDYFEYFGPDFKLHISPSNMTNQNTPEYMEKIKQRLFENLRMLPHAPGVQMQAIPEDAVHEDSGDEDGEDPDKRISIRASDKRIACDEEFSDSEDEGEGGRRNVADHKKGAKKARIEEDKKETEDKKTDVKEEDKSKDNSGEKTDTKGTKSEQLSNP", "assay": "In vitro HDAC inhibition fluorescent assay, HDAC2", "format": "biochemical", "conditions": "Boc-Lys(acetyl)-AMC substrate", "description": "as §2"}, "[10]": {"biological_target": "T1, HDAC6 (Homo sapiens, UniProt Q9UBN7)", "T1 sequence (Q9UBN7 1-1215)": "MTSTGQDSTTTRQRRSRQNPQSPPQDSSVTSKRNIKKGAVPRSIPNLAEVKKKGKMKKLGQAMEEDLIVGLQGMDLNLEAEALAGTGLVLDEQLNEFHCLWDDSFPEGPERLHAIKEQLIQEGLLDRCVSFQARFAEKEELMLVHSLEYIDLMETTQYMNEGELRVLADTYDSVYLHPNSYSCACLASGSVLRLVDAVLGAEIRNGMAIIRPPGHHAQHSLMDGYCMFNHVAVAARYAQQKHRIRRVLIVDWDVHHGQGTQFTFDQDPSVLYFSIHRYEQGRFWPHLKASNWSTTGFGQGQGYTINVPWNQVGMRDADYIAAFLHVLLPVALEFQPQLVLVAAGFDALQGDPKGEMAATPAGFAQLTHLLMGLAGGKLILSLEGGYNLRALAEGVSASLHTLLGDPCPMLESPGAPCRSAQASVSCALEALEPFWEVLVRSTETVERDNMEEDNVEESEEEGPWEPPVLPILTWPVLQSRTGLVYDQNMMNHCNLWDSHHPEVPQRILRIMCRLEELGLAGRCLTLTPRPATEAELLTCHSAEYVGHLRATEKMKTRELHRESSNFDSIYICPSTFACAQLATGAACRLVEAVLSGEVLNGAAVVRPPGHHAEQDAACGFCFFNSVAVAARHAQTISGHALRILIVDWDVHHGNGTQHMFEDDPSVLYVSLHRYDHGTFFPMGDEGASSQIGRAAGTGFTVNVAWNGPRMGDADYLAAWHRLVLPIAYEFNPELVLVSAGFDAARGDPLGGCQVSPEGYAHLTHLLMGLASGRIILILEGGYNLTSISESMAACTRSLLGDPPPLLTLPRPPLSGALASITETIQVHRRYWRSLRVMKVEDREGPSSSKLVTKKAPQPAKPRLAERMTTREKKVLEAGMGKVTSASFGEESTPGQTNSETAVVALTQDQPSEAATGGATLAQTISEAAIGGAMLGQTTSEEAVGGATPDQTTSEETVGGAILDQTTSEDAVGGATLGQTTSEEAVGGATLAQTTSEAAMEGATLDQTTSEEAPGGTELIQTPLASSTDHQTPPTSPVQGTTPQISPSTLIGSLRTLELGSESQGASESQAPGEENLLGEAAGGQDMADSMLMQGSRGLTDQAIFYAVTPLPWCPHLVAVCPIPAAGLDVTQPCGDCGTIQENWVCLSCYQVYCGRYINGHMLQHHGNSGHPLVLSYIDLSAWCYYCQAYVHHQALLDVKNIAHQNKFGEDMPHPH", "assay": "In vitro HDAC inhibition fluorescent assay, HDAC6", "format": "biochemical", "conditions": "Boc-Lys(acetyl)-AMC substrate", "description": "as §2"}, "[11]": {"biological_target": "T2, HDAC8 (Homo sapiens, UniProt Q9BY41)", "T2 sequence (Q9BY41 1-377)": "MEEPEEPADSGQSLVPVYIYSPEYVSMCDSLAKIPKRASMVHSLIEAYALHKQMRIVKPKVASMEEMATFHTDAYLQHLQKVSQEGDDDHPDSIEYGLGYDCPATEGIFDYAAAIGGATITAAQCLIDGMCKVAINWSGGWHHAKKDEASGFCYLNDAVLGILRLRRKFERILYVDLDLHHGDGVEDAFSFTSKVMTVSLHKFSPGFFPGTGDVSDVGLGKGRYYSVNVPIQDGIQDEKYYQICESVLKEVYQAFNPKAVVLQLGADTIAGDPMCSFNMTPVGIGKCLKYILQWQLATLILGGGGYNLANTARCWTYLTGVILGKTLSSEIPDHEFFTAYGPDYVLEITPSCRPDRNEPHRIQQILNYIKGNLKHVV", "assay": "In vitro HDAC inhibition fluorescent assay, HDAC8", "format": "biochemical", "conditions": "Boc-Lys(trifluoroacetyl)-AMC substrate", "description": "as §2"}, "[12]": {"system": "MCF-7", "assay": "In vitro antiproliferative assay (MTT), MCF-7", "format": "cell-based", "conditions": "Homo sapiens, MCF7, 72 h", "description": "as §1"}, "[13]": {"system": "SK-N-BE(2)", "assay": "In vitro antiproliferative assay (MTT), SK-N-BE(2)", "format": "cell-based", "conditions": "Homo sapiens, SKNBE2, 72 h", "description": "as §1"}, "[14]": {"system": "MOLT-4", "assay": "In vitro antiproliferative assay (MTT), MOLT-4", "format": "cell-based", "conditions": "Homo sapiens, 72 h", "description": "as §1"}, "[15]": {"assay": "In vitro metabolic stability assay in human plasma", "format": "in vitro ADME", "conditions": "37°C, LC-MS/MS, read-out: t1/2 Human plasma", "description": "(§3) Human plasma samples containing compound 1 were incubated at 37°C. At the specific time points, samples were added to acetonitrile to terminate the reaction, then subjected to vortex mixing for 5 min and stored in a freezer at –80°C. Before analysis, the samples were centrifuged. The remainder of 1 in the supernatants was analyzed by liquid chromatography with tandem mass spectrometry (LC-MS/MS). The t1/2(half–time) values were calculated using the equation t1/2(half–time) = −0.693/k, where k is the slope found in the linear fit of the natural logarithm of the fraction remaining of compound 1 versus incubation time."}, "[16]": {"assay": "In vitro metabolic stability assay in human liver microsomes", "format": "in vitro ADME", "conditions": "with NADPH, 37°C, LC-MS/MS, read-out: t1/2 Human liver microsomes", "description": "as §3, with “Human liver microsomes” for “Human plasma samples”, “incubated with NADPH” for “incubated”, “by LC-MS/MS.” for “by liquid chromatography with tandem mass spectrometry (LC-MS/MS).”, “equation t1/2” for “equation t1/2(half–time)”"}, "[17]": {"system": "MDA-MB-231 xenograft", "format": "in vivo", "conditions": "oral 30 mg/kg/day", "description": "Ten days after injection, tumors were palpable and mice were randomized into treatment and control groups (six mice per group). […] Subcutaneous tumors were measured with a vernier caliper every 3 days. Tumor volumes (V) were estimated using the equation (V = ab^2/2, where a and b are the longest and shortest diameter, respectively). The body weight of the mice was also monitored regularly. At the end of the experimental period, mice were sacrificed and the tumor tissues were dissected and weighed. Tumor growth inhibition (TGI) and the relative increment ratio (T/C) were calculated at the end of treatment to reveal the antitumor effects in tumor weight and tumor volume, respectively.\n• TGI = (the mean tumor weight of control group – the mean tumor weight of treated group)/the mean tumor weight of control group. • T/C = the mean RTV of treated group (T)/the mean RTV of blank control group (C).\nwhere the relative tumor volume (RTV) is Vt/V0 (Vt is the tumor volume measured at the end of treatment; V0 is the tumor volume measured at the beginning of the treatment).\nAll the obtained data were used to evaluate the antitumor potency and toxicity of compounds. Data were analyzed by Student’s one-tailed t-test."}}, "note": "Marks after values point to notes of the source that are not given here."}
{"smiles": "O=C(CCCCCCC(=O)Nc1ccccc1)NO", "note": "[Vorinostat, suberoylanilide hydroxamic acid, reference compound]", "values": [{"measurement": "level of acetyl-histone H4", "setting": "[1]", "value": "dramatically increase"}, {"measurement": "level of acetyl-α-tubulin", "setting": "[1]", "value": "dramatically increase"}, {"measurement": "t1/2 Human plasma", "setting": "[2]", "value": "75^b min"}]}
{"smiles": "Nc1nc2ccc(OC(F)(F)F)cc2s1", "note": "[Riluzole, reference compound]", "values": [{"measurement": "IC50", "setting": "[3]", "value": "> 10000", "unit": "nM"}, {"measurement": "IC50", "setting": "[4]", "value": "> 10000", "unit": "nM"}, {"measurement": "IC50", "setting": "[5]", "value": "> 10000", "unit": "nM"}, {"measurement": "IC50", "setting": "[6]", "value": "> 10000", "unit": "nM"}, {"measurement": "inhibition at 10 µM", "setting": "[7]; at 10 μM, tested tumor cell lines, read-out: growth inhibition", "value": "< 50", "unit": "%"}]}
{"smiles": "O=C(CCCCCCC(=O)Nc1nc2ccc(OC(F)(F)F)cc2s1)NO", "note": "[Compound 1, N1-Hydroxy-N8-(6-(Trifluoromethoxy)benzo[d]thiazol-2-yl) Octanediamide]", "values": [{"measurement": "IC50", "setting": "[8]", "value": "120 ± 10", "unit": "nM"}, {"measurement": "IC50", "setting": "[9]", "value": "330 ± 40", "unit": "nM"}, {"measurement": "IC50", "setting": "[10]", "value": "12 ± 2", "unit": "nM"}, {"measurement": "IC50", "setting": "[11]", "value": "3300 ± 200", "unit": "nM"}, {"measurement": "IC50", "setting": "[3]", "value": "770 ± 20", "unit": "nM"}, {"measurement": "IC50", "setting": "[12]", "value": "2740 ± 60", "unit": "nM"}, {"measurement": "IC50", "setting": "[4]", "value": "2520 ± 330", "unit": "nM"}, {"measurement": "IC50", "setting": "[13]", "value": "290 ± 7", "unit": "nM"}, {"measurement": "IC50", "setting": "[5]", "value": "650 ± 20", "unit": "nM"}, {"measurement": "IC50", "setting": "[14]", "value": "170 ± 7", "unit": "nM"}, {"measurement": "IC50", "setting": "[6]", "value": "140 ± 7", "unit": "nM"}, {"measurement": "IC50", "setting": "[7]; range over MDA-MB-231, MCF-7, PC-3, SK-N-BE(2), KG-1, MOLT-4, HEL, read-out: IC50 values across all tested human cancer cell lines", "value": "140 to 2740", "unit": "nM"}, {"measurement": "half-life", "setting": "[15]", "value": "> 120", "unit": "min"}, {"measurement": "half-life", "setting": "[16]", "value": 56, "unit": "min"}, {"measurement": "T/C (relative increment ratio, tumor volume)", "setting": "[17]; 21 consecutive days, nude mice", "value": 55, "unit": "%"}, {"measurement": "TGI (tumor growth inhibition, tumor weight)", "setting": "[17]; 21 consecutive days, nude mice", "value": 59, "unit": "%"}, {"measurement": "mouse body weights (tolerability)", "setting": "[17]; 21 days, Figure 6", "value": "high tolerability and low toxicity"}, {"measurement": "level of acetyl-histone H4", "setting": "[1]", "value": "dramatically increase"}, {"measurement": "level of acetyl-α-tubulin", "setting": "[1]", "value": "dramatically increase"}, {"measurement": "effect on acetyl-α-tubulin compared with vorinostat", "setting": "[1]; same concentration of 0.5 μM", "value": "superior to that of vorinostat"}]}
